Counter-ions that a name gives are not always drawn.

One data set has as its system souris. Description: Acute toxicity, intraperitoneal, mouse. Format: in vivo. The following applies: mortality recorded 48 hours after administration. An excerpt: 5) Etude de la toxicité aigüe
On évalue les doses létales 50 (DL 50) des produits après administration par voie intrapéritonéale chez la souris.
La mortalité est relevée quarante-huit heures après l'administration des produits.

A further data set concerns trachée isolée de cobaye. Description: Action on isolated guinea pig trachea (carbachol-induced contractions). The class given is cell-based. The following applies: Cavia porcellus; product at 3.10^-6M; carbachol 0,4µ/ml; Krebs Henseleit solution, 37°C; read-out: antagonise les contractions provoquées par le carbachol. How it is done: 1) Action sur la trachée isolée de cobaye
On prélève les trachées de cobaye que l'on vient de sacrifier par un coup sur la nuque, les trachées sont découpées en spirale et suspendues dans une solution de Krebs Henseleit, à la température de 37°C dans laquelle barbote un mélange de 95 % d'oxygène et 5 % de gaz carbonique.
On ajoute dans la solution du carbachol comme agoniste pour provoquer des contractions.
Le produit de l'exemple 1 à la concentration de 3.10^-6M, antagonise de 100 % les contractions provoquées par le carbachol à la concentration de 0,4µ/ml.

The subject of data set [1] is Hypothermie à l'apomorphine. Description: Antidepressant activity: apomorphine hypothermia. The class given is in vivo, souris mâles. The following applies: Mus musculus, ip; intraperitoneal, before apomorphine hydrochloride 16 mg/kg intraperitoneal; rectal temperature; read-out: DE 50 (dose qui réduit de 50 % l'écart de température observé entre les témoins). The method, then: (§1) 6) Détermination de l'activité antidénpressive
b) Hypothermie à l'apomorphine
Le test est effectué sur un lot de 10 souris mâles.
On induit chez les animaux une hypothermie par injection intrapéritonéale de 16 mg/kg de chlorhydrate d'apomorphine. Le composé testé est administré par voie intrapéritonéale 30 mm avant l'injection d'apomorphine; la température rectale des animaux est mesurée 30 mm après l'injection d'apomorphine.
Des animaux témoins reçoivent soit du soluté physiologique, soit de l'apomorphine; on mesure l'écart de température entre les témoins ayant reçu le soluté physiologique, les témoins ayant reçu l'apomorphine seule et les animaux ayant reçu l'apomorphine et le composé testé.
On appelle DE 50 la dose de composé qui réduit de 50 % l'écart de température observé entre les témoins, […]

For data set [2], the system named is bronchospasme provoqué par l'histamine. In words: Action on histamine-induced bronchospasm in the guinea pig (Konzett and Rossler method). Format: in vivo, cobaye. The following applies: 1µg/kg i.v. one minute before histamine (2 à 10µg/kg i.v.). The method, then: -2) Action sur le bronchospasme provoqué par l'histamine chez le cobaye
Suivant la méthode de Konzett et Rossler Arch. exp. Path. Pharmakol. 195 71 (1940), de l'histamine est administrée à une dose variant de 2 à 10µg/kg i.v. selon la sensibilité de l'animal.
L'enregistrement de la pression produite par l'air expulsé est effectué à l'aide d'un microdynamomètre Apelab.
Le produit à tester est injecté en solution dans le sérum physiologique par voie i.v. une minute avant l'histamine.
On enregistre un éventuel effet du produit seul et son action antagoniste vis-à-vis de l'agent constricteur.
L'activité antagoniste est exprimée en pourcentage de protection par rapport au bronchospasme initial dû à l'histamine.

For data set [3], the system named is Hypothermie à la réserpine. Description: Antidepressant activity: reserpine hypothermia. The class given is in vivo, souris mâles. The following applies: 10 mg/kg I.P; reserpine 4 mg/kg intraperitoneal; rectal temperature measured for 5 hours. How it is done: as §1
a) Hypothermie à la réserpine
Le test est effectué sur un lot de 10 souris mâles auxquelles on administre par voie intrapéritonéale 4 mg/kg de réserpine.
La température rectale des animaux est mesurée pendant 5 heures à l'aide d'un thermomètre électrique.

Data set [4] relates to pression artérielle carotidienne. In words: Hypotensive activity in anaesthetised rats (carotid arterial pressure). The class given is in vivo, rats mâles de souche Sprague Dawley S.P.F. The following applies: rats anaesthetised with nembutal. The method, then:
3) Déterminiation de l'activité hypotensive
L'activité hypotensive a été étudiée sur des rats mâles de souche Sprague Dawley S.P.F. pesant 300 g environ et anesthésiés au nembutal (50 mg/kg par voie intraveineuse).
Le produit testé a été administré par voie intraveineuse dans la veine jugulaire.
La pression artérielle carotidienne a été mesurée avant et après administration du produit testé.
Le tableau ci-après indique les variations exprimées en pourcentage de la pression artérielle, après administration du produit testé par rapport à la pression artérielle initiale ainsi que le temps pendant lequel se manifestent ces variations.

In the case of `Oc1ccc(C(O)C2CCCN2)cc1O` (single isomer, unassigned) [Exemple 1, Oxalate acidede 4-[α-hydroxy(pyrrolidin-2-yl)méthyl]1,2-benzène diol (isomère A)], in the data set on souris (listed as exemple 1, 2880 min), the “dose létale 50 (DL 50)” value stood at 250 mg/kg. In addition, the inhibition at 3 µM in the data set with trachée isolée de cobaye was determined as 100%. Besides, the ED50 in data set [1] came out at 25 mg/kg. In addition, the “inhibition de la broncho constriction à l'histamine (pourcentage de protection par rapport au bronchospasme initial)” value in data set [2] (listed as exemple 1) turned out to be 52%. Further, the “apparition de l'hypothermie provoquée par la réserpine” value in data set [3] was “retarde l'apparition de l'hypothermie provoquée par la réserpine”. Besides, the “Variations % de la pression artérielle” value in data set [4] (1 mg/kg intravenous (jugular vein), relative to initial pressure) was -35%. The “Durée d'action” value in data set [4] (1 mg/kg intravenous) was more than 65 min.

As to `Oc1ccc(C(O)C2CCCN2)cc1O` (single isomer, unassigned) [Exemple 3, Chlorhydrate du 4-/α-hydroxy(pyrrolidin-2-yl) méthyl/1,2-benzène diol (isomère B)], in the data set on souris (listed as exemple 3, 2880 min), the “dose létale 50 (DL 50)” value was 40 mg/kg. Also, in data set [2] (listed as exemple 3), the “inhibition de la broncho constriction à l'histamine (pourcentage de protection par rapport au bronchospasme initial)” value amounted to 17%.
